For 21 compounds, IC50 results are on record in US20210221785A1, “AMINO-PYRIMIDONYL DERIVATIVES, A PROCESS FOR THEIR PREPARATION AND PHARMACEUTICAL COMPOSITIONS CONTAINING THEM” (LES LABORATOIRES SERVIER, priority 2018, published 2021).

Structures can show the parent of a compound that is named as a salt.

Test [1] relates to Z138 mantle cell lymphoma tumour cell lines. Kind of test: In vitro cytotoxicity, MTT assay. Type of test: cell-based. To be noted: Z138 cells exposed to the test compounds for 96 hours, cell viability vs DMSO treated cells. As for the experimental part:
The cytotoxicity studies were evaluated by MTT [3-(4,5-dimethylthiazol-2-yl)-2,5-diphenyltetrazolium bromide] assay and carried out on Z138 mantle cell lymphoma tumour cell lines. The cells are distributed onto microplates and exposed to the test compounds for 96 hours. MTT is then added for 4 hours and converted by NAD(P)H-dependent cellular oxidoreductase enzymes in formazan, which has a purple color. The viable cell number is proportional to the production of formuan salts and cell viability can be quantified by the absorbance of the solution at 540 nm with a speetrophotometer (Carmichael et al., Cancer Res. 1987, 47, 936-942).
For orientation: Tetrazolium assays rely on reduction of a dye to a coloured formazan, in cell work by metabolically active cells.

The target of test [2] is T1, His-His-USP7 (aa208-560, |C315A|) (Homo sapiens, UniProt Q93009, C315A).
T1 construct: His-His-USP7 (aa208-560, |C315A|); His-His (N)
Put plainly: Evaluation of the inhibition of USP7 by the Fluorescence Intensity (FLINT) readings. Type of test: biochemical. To be noted: 0.25 nM His-His-USP7, compound incubated 60 minutes at 30° C., 500 nM Ubiquitin-Rhodamine-110 substrate; 50% reduction in kinetic rate. In short, it runs like this: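 IC50 reflects 50% reduction in kinetic rate of rhodamine-110 release (Ex485/Em535, reads every 3 min over 21 min), normalised to DMSO and no-enzyme controls, from an 11-point 4-parameter fit. Substrate is 500 nM Ub-Rh110, added after 60 min, 30 °C preincubation of compound with 0.25 nM USP7 aa208–560 C315A. Buffer is Bicine pH 8.0 with 10% DMSO.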

T1 sequence (Q93009 208-560 C315A): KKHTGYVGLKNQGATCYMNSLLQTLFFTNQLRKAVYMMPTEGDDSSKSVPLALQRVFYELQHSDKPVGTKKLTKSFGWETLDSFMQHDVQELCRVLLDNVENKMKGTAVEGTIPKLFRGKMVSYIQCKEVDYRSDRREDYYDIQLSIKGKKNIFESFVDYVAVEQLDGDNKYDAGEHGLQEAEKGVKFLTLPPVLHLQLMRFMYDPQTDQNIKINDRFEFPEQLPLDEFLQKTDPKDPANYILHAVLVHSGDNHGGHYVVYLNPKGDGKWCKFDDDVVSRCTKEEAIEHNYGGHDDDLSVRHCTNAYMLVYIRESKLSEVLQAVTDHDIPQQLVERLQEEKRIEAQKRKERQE

Usually IC50 stands for the concentration at which inhibition is half-maximal. The low end stands for higher potency, the high end for lower potency. `Nc1c(Oc2ccc(F)cc2)ncn(CC2(O)CCN(C(=O)[C@@H]3CCC(F)(C#CC4CC4)C[C@H]3c3ccccc3)CC2)c1=O` (relative stereo) [Example 124, rel-5-amino-3-[(1 -{[(1R,2 R)-4-(2-cyclopropylethynyl)-4-fluoro-2-phenylcyclohexyl]carbonyl}-4-hydroxypiperidin-4-yl)methyl]-6-(4-fluorophenoxy)pyrimidin-1-one]: the IC50 stood at 0.236 µM in test [1] (Homo sapiens, Z-138, 96 h) and 0.0896 µM in test [2].

With `CC#CC1(F)CC[C@@H](C(=O)N2CCC(O)(Cn3cnc(Oc4ccc(F)cc4)c(N)c3=O)CC2)[C@H](c2ccccc2)C1` (relative stereo) [Example 125, rel-5-amino-3-[(1-{[(1R,2R)-4-fluoro-2-phenyl-4-(prop-1-yn-1-yl)cyclohexyl]carbonyl}-4-hydroxypiperidin-4-yl)methyl]-6-(4-fluorophenoxy)pyrimidin-4-one], the IC50 came to 0.0603 µM in test [1] (Homo sapiens, Z-138, 96 h) and 0.0895 µM in test [2].

For the compound `Nc1c(Oc2ccc(F)cc2)ncn(CC2(O)CCN(C(=O)[C@@H]3CC[C@@](F)(Cc4ccccn4)C[C@H]3c3ccccc3)CC2)c1=O` (relative stereo) [Example 126, rel-5-amino-3-[(1-{[(1R,2R,4S)-4-fluoro-2-phenyl-4-(pyridin-2-ylmethyl)cyclohexyl]carbonyl)}-4-hydroxypiperidin-4-yl)methyl]-6-(4-fluorophenoxy)pyrimidin-4-one], the IC50 in test [1] (Homo sapiens, Z-138, 96 h) stood at 0.17 µM; in test [2], 0.0795 µM.

Regarding `CC(N)c1ccc(Oc2ncn(CC3(O)CCN(C(=O)[C@@H]4CCC(F)(F)C[C@H]4c4ccccc4)CC3)c(=O)c2N)cc1` (single isomer, unassigned; diastereoisomer 1) [Example 54], the IC50 is 0.273 µM in test [1] (Homo sapiens, Z-138, 96 h) and 0.0074 µM in test [2].

Consider `CC(N)c1ccc(Oc2ncn(CC3(O)CCN(C(=O)[C@@H]4CCC(F)(F)C[C@H]4c4ccccc4)CC3)c(=O)c2N)cc1` (single isomer, unassigned; diastereoisomer 2) [Example 55], for which the values for the IC50 in test [1] and in test [2] were 0.264 µM and 0.00869 µM, respectively.

With `Nc1c(Oc2ccccc2)ncn(CC2(O)CCN(C(=O)[C@@H]3CCC(F)(F)C[C@H]3c3ccccc3)CC2)c1=O` [Example 1, 5-amino-3-({1-[(1R,2R)-4,4-difluoro-2-phenylcyclohexane-1-carbonyl]-4-hydroxypiperidin-4-yl}methyl)-6-phenoxypyrimidin-4(3H)-one], the IC50 in test [1] (Homo sapiens, Z-138, 96 h) was 0.0866 µM; in test [2], 0.0437 µM.

On to `COc1ccc(Oc2ncn(CC3(O)CCN(C(=O)[C@@H]4CCC(F)(F)C[C@H]4c4ccccc4)CC3)c(=O)c2N)cc1` [Example 3, 5-amino-3-({1-[(1R,2R)-4,4-difluoro-2-phenylcyclohexane-1-carbonyl]-4-hydroxypiperidin-4-yl}methyl)-6-(4-methoxyphenoxy)pyrimidin-4(3H)-one], for which the IC50 was found to be 0.0595 µM in test [1] (Homo sapiens, Z-138, 96 h) and 0.0802 µM in test [2].

Take `Nc1c(Oc2ccc(F)cc2)ncn(CC2(O)CCN(C(=O)[C@@H]3CCC(F)(F)C[C@H]3c3ccccc3)CC2)c1=O` [Example 5, 5-amino-3-({1-[(1R,2R)-4,4-difluoro-2-phenylcyclohexane-1-carbonyl]-4-hydroxypiperidin-4-yl}methyl)-6-(4-fluorophenoxy)pyrimidin-4(3H)-one]: the IC50 is 0.0435 µM in test [1] (Homo sapiens, Z-138, 96 h) and 0.0634 µM in test [2].

As to `CNc1c(Oc2ccccc2)ncn(CC2(O)CCN(C(=O)[C@@H]3CCC(F)(F)C[C@H]3c3ccccc3)CC2)c1=O` [Example 9, 3-({1-[(1R4R)-4,4-difluoro-2-phenylcyclohexane-1-carbonyl]-4-hydroxypiperidin-4-yl}methyl)-5-(methylamino)-6-phenoxypyrimidin-4(3H)-one], the IC50 in test [1] (Homo sapiens, Z-138, 96 h) was 0.287 µM; in test [2], 0.0858 µM.

For the compound `Nc1c(Oc2ccc(Cl)cc2)ncn(CC2(O)CCN(C(=O)[C@@H]3CCC(F)(F)C[C@H]3c3ccccc3)CC2)c1=O` [Example 11, 5-amino-6-(4-chlorophenoxy)-3-({1-[(1R,2R)-4,4-difluoro-2-phenylcyclohexane-1-carbonyl]-4-hydroxypiperidin-4-yl}methyl)pyrimidin-4(3H)-one], the IC50 in test [1] (Homo sapiens, Z-138, 96 h) was found to be 0.197 µM; in test [2], 0.0587 µM.

Take `COc1cc(Oc2ncn(CC3(O)CCN(C(=O)[C@@H]4CCC(F)(F)C[C@H]4c4ccccc4)CC3)c(=O)c2N)ccc1Cl` [Example 12, 5-amino-6-(4-chloro-3-methoxy-phenoxy)-3-({1-[(1R,2R)-4,4-difluoro-2-phenylcyclohexane-1-carbonyl]-4-hydroxypiperidin-4-yl}methyl)pyrimidin-4(3H)-one]: the IC50 was found to be 0.0909 µM in test [1] (Homo sapiens, Z-138) and 0.0571 µM in test [2].

For `Nc1c(Oc2ccc3c(c2)OCO3)ncn(CC2(O)CCN(C(=O)[C@@H]3CCC(F)(F)C[C@H]3c3ccccc3)CC2)c1=O` [Example 14], the IC50 in test [1] (Homo sapiens, Z-138, 96 h) worked out at 0.0413 µM; in test [2], 0.0718 µM.

In the case of `COc1cc(O)cc(Oc2ncn(CC3(O)CCN(C(=O)[C@@H]4CCC(F)(F)C[C@H]4c4ccccc4)CC3)c(=O)c2N)c1` [Example 15, 5-amino-3-({1-[(1R,2R)-4,4-difluoro-2-phenylcyclohexane-1-carbonyl]-4-hydroxypiperidin-4-yl}methyl)-6-(3-hydroxy-5-methoxyphenoxy)pyrimidin-4(3H)-one], the IC50 came out at 0.0195 µM in test [1] (Homo sapiens, Z-138, 96 h) and 0.0235 µM in test [2].

For the compound `COc1cc(Oc2ncn(CC3(O)CCN(C(=O)[C@@H]4CCC(F)(F)C[C@H]4c4ccccc4)CC3)c(=O)c2N)ccc1F` [Example 16, 5-amino-3-({1-[(1R,2R)-4,4-difluoro-2-phenylcyclohexane-1-carbonyl]-4-hydroxypiperidin-4-yl}methyl)-6-(4-fluoro-3-methoxyphenoxy)pyrimidin-4(3H)-one], the IC50 in test [1] (Homo sapiens, Z-138, 96 h) is 0.0424 µM; in test [2], 0.0516 µM.

Consider `Cc1cccc(Oc2ncn(CC3(O)CCN(C(=O)[C@@H]4CCC(F)(F)C[C@H]4c4ccccc4)CC3)c(=O)c2N)c1` [Example 19, 5-amino-3-({1-[(1R,2R)-4,4-difluoro-2-phenylcyclohexane-1-carbonyl]-4-hydroxypiperidin-4-yl}methyl)-6-(3-methylphenoxy)pyrimidin-4(3H)-one], for which the IC50 in test [1] (Homo sapiens, Z-138, 96 h) turned out to be 0.0716 µM; in test [2], 0.0831 µM.

Consider `Nc1c(Oc2cccc(Br)c2)ncn(CC2(O)CCN(C(=O)[C@@H]3CCC(F)(F)C[C@H]3c3ccccc3)CC2)c1=O` [Example 20, 5-amino-6-(3-bromophenoxy)-3-([1-{(1R,2R)-4,4-difluoro-2-phenylcyclohexane-1-carbonyl]-4-hydroxypiperidin-4-yl}methyl)pyrimidin-4(3H)-one], for which the IC50 in test [1] (Homo sapiens, Z-138, 96 h) was 0.146 µM; in test [2] it was 0.105 µM.

As to `Nc1c(Oc2ccc(CO)cc2)ncn(CC2(O)CCN(C(=O)[C@@H]3CCC(F)(F)C[C@H]3c3ccccc3)CC2)c1=O` [Example 23, 5-amino-3-({1-[(1R,2R)-4,4-difluoro-2-phenylcyclohexane-1-carbonyl]-4-hydroxypiperidin-4-yl}methyl)-6-[4-(hydroymethyl)phenoxy]pyrimidin-4(3H)-one], the IC50 in test [1] (Homo sapiens, Z-138, 96 h) amounted to 0.22 µM; in test [2], 0.04 µM.

Turning to `N#Cc1ccc(Oc2ncn(CC3(O)CCN(C(=O)[C@@H]4CCC(F)(F)C[C@H]4c4ccccc4)CC3)c(=O)c2N)cc1` [Example 24, 4-{[5-amino-1-({1-[(1R,2R)-4,4-difluoro-2-phenylcyclohexane-1-carbonyl]-4-hydroxypiperidin-4-yl}methyl)-6-oxo-1,6-dihydropyrimidin-4-yl]oxy}benzonitrile], the IC50 was 0.165 µM in test [1] (Homo sapiens, Z-138, 96 h) and 0.03 µM in test [2].

For `Nc1c(Oc2ccc3c(c2)CNCC3)ncn(CC2(O)CCN(C(=O)[C@@H]3CCC(F)(F)C[C@H]3c3ccccc3)CC2)c1=O` [Example 26, 5-amino-3-({1-[(1R,2R)-4,4-difluoro-2-phenylcyclohexane-1-carbonyl]-4-hydroxypiperidin-4-yl}methyl)-6-[(1,2,3,4-tetrahydroisoquinolin-7-yl)oxy]pyrimidin-4(3H)-one, hydrochloride], the IC50 in test [1] (Homo sapiens, Z-138, 96 h) is 0.406 µM; in test [2], 0.02 µM.

In the case of `Nc1c(Oc2cccc(CO)c2)ncn(CC2(O)CCN(C(=O)[C@@H]3CCC(F)(F)C[C@H]3c3ccccc3)CC2)c1=O` [Example 28, 5-amino-3-({1-[(1R,2R)-4,4-difluoro-2-phenylcyclohexane-1-carbonyl]-4-hydroxypiperidin-4-yl}methyl)-6-[3-(hydroxymethyl)phenoxy]pyrimidin-4(3H)-one], the IC50 was found to be 0.052 µM in test [1] (Homo sapiens, Z-138, 96 h) and 0.053 µM in test [2].

Regarding `Nc1c(Oc2ccc3c(c2)CCNC3)ncn(CC2(O)CCN(C(=O)[C@@H]3CCC(F)(F)C[C@H]3c3ccccc3)CC2)c1=O` [Example 31, 5-amino-3-({1-[(1R,2R)-4,4-difluoro-2-phenylcyclohexane-1-carbonyl]-4-hydroxypiperidin-4-yl}methyl)-6-[(1,2,3,4-tetrahydroisoquinolin-6-yl)oxy]pyrimidin-4(3H)-one], the IC50 in test [1] (Homo sapiens, Z-138, 96 h) was found to be 0.648 µM; in test [2] it was 0.047 µM.
